# According to PMC2670829 (BMC Pharmacology, 2009):
# Where “and” joins values, the source holds several entries; their conditions need not be identical. Equal values may be shown once. Read-outs that look alike come from different tables or passages of the source. Marks after values point to notes of the source that are not given here.
# Experiments:
# [1] = tested on: subcutaneous Tsc2^-/- tumors (NTC/T2null cells); experiment: Subcutaneous Tsc2-/- tumor model in nude mice, atorvastatin, doxycycline and rapamycin study; details: for Efficacy on tumor growth and survival, in words / Median survival: doxycycline 10 mg/kg IP 5 days per week, rapamycin 8 mg/kg IP 3 days per week; for Median survival: time to tumor volume ~3000 mm^3, atorvastatin 20 mg/kg IP, start at ~50 mm^3
# Description: (§1) Nude mice (strain CD-1nuBR, up to 6–8 weeks old) were obtained from Charles River Laboratories, Inc. (Wilmington, Massachusetts) and injected subcutaneously on the dorsal flank with 2.5 million NTC/T2null (Tsc2^-/-, Trp53^-/-) cells. As soon as tumors became visible, they were measured Monday through Friday using calipers. Tumor volumes were calculated using the formula: length × width × width × 0.5 [43]. All mice were euthanized once tumors reached ~3000 mm^3 in accordance with institutional animal care guidelines. Please note that survival analysis is done using time to tumor volume of ~3000 mm^3, because this is when animals are euthanized. […] Statistical comparison of tumor volume measurements between groups is done on the last day that relevant groups had at least four tumor measurements.
# A cohort of 48 CD-1 nude mice was injected with NTC/T2null (Tsc2^-/-, Trp53^-/-) cells.
# All drug treatments started when tumors reached a volume of ~50 mm^3 (day 1 of treatment), regardless of treatment schedule, and animals were euthanized when tumors reached a volume of ~3000 mm^3. If a volume of 40 mm^3 was reached on Thursday or Friday, treatment began that day. Otherwise, treatment was started on the day tumor volume was ≥50 mm^3.
# Mice being treated with doxycycline were treated daily Monday through Friday with 200 μl of a 1.5 mg/ml (10 mg/kg) IP injection. […] All drug doses were calculated based on an average weight of 30 g per mouse. […] Doxycycline powder was obtained from Sigma-Aldrich Co. (St. Louis, MO) and was diluted in sterile PBS.
# [2] = tested on: kidney cystadenomas in Tsc2^+/- mice; details: cited from earlier work; for Percent decrease in tumor score per kidney with treatment / Tumor score per kidney (ave. ± Std. Err.): analysis at 12 months, ref Messina et al., 2007; for Tumor score per kidney (ave. ± Std. Err.): CCI-779 8 mg/kg per day, 5 days/week
# [3] = in words
# [4] = tested on: kidney cystadenomas in Tsc2^+/- mice; experiment: Kidney tumor (cystadenoma) score by quantitative histopathology in Tsc2+/- mice; assay type: in vivo, mouse; details: for Tumor score per kidney (ave. ± Std. Err.): daily IP treatment at 6–7 and 12–13 months (rapamycin 8 mg/kg, IFN-g 20,000 IU), weekly rapamycin 16 mg/kg at 7–12 months
# Description: The Tsc2^+/- mouse is heterozygous for a deletion of exons 1–2 as previously described. The Tsc2^+/- cohort used in this experiment was obtained by crossing these Tsc2^+/- mice with wild-type C57BL/6 mice. In order to avoid bias due to strain variation, sibling littermates were used as controls. Tsc2^+/- mice were assigned to one of three cohorts: rapamycin 8 mg/kg IP, rapamycin 8 mg/kg plus IFN-g 20,000 units IP, and untreated. All mice receiving drug therapy were treated in three consecutive parts: In part one, mice were treated daily (5 days/week, Monday through Friday) for one month (6 months ≤ age < 7 months) with their assigned treatments by intraperitoneal injection (IP). In part two, all mice in both the rapamycin and rapamycin plus IFN-g cohorts stopped their assigned daily treatment and started a weekly 16 mg/kg maintenance dose of rapamycin for five months (7 months ≤ age < 12 months). In the final part, all mice restarted the same treatment they received from 6–7 months of age for one final month (see Table 1). The two month-long periods of daily rapamycin treatment before and after the maintenance treatment were included so that we can compare the results of this study with our previous preclinical studies that also include a total of two months of daily treatment without the weekly maintenance treatment phase. All mice were euthanized at 13 months of age according to institutional animal care guidelines. We evaluated kidney disease at 13 months in this experiment instead of 12 months in prior studies because kidney disease severity is likely to be higher in older mice, and we reasoned that this may allow us to better detect small differences between treatment groups. The severity of kidney disease was determined in all animals using quantitative histopathology as described below.
# Rapamycin powder was obtained from LC Laboratories (Woburn, MA) and a 20 mg/ml stock of rapamycin was made in ethanol (stored at -20°C for up to one week). The stock solution was diluted to 1.2 mg/ml in vehicle (0.25% PEG, 0.25% Tween-80) for the 8 mg/kg dose and diluted to 2.4 mg/ml in vehicle for the 16 mg/kg dose. Murine IFN-g (R&D Systems, Minneapolis, MN) was diluted to 100,000 units/ml in sterile phosphate buffered saline (PBS) containing 0.1% mouse serum albumin (Sigma-Aldrich, Inc., St. Louis, MO) and stored at 4°C. […]
# For histological quantification of kidney cystadenomas, each kidney was fixed and sliced at 1 mm intervals. […] All slides were coded to keep scoring blinded, and all cystadenomas were counted, measured, and scored according to the scale shown in Table 2 by two blinded researchers (CW and AN). Cystadenomas that extended into more than one 1 mm kidney slice were counted only once and scored according to the maximum diameter. […]
# [5] = mouse, in vivo
# Description: Animal behavior and health were monitored daily, and animals were weighed at the start of the study and at the time of necropsy. […] All mice from rapamycin treated cohorts were euthanized 24 hours after the last rapamycin treatment upon reaching the endpoint tumor volume. Upon sacrifice, whole blood and tumor were harvested for drug level testing.
# [6] = no reference given; cited from earlier work
# in vivo = details: mouse, intraperitoneal, 8 mg/kg
# [7] = tested on: subcutaneous Tsc2^-/- tumors (NTC/T2null cells); experiment: Subcutaneous Tsc2-/- tumor model in nude mice, sorafenib and rapamycin study; details: rapamycin 8 mg/kg IP, sorafenib 60 mg/kg gavage, 5 days per week
# Description: as §1
# Two mice were excluded from the analyses. […] All drug doses were calculated based on an average weight of 30 g per mouse.
# [8] = mean ± standard error, rapamycin 8 mg/kg 3 days per week, atorvastatin 20 mg/kg, doxycycline 10 mg/kg 5 days per week, IP
# [9] = 8 mg/kg daily × 2 months, total 9.6 mg per mouse, ref Messina et al. 2007
structure (smiles),measurement,setting,value
CC(C)c1c(C(=O)Nc2ccccc2)c(-c2ccccc2)c(-c2ccc(F)cc2)n1CC[C@@H](O)C[C@@H](O)CC(=O)O [Atorvastatin],"Efficacy on tumor growth and survival, in words",[1]; atorvastatin 20 mg/kg,did not reduce tumor growth or improve survival as a single agent
same,"Day 26, average tumor volume",[1]; [8],1931 ± 298 mm^3
same,Median survival,[1],32.5 days
"CO[C@H]1C[C@@H]2CC[C@@H](C)[C@@](O)(O2)C(=O)C(=O)N2CCCC[C@H]2C(=O)O[C@H]([C@H](C)C[C@@H]2CC[C@@H](OC(=O)C(C)(CO)CO)[C@H](OC)C2)CC(=O)[C@H](C)/C=C(\C)[C@@H](O)[C@@H](OC)C(=O)[C@H](C)C[C@H](C)/C=C/C=C/C=C/1C [CCI-779, temsirolimus]",% Reduction in kidney tumors (kidney tumor number),"[2]; 4 mg/kg 3 times a week × 3 months, total 4.32 mg per mouse, ref Lee et al. 2005",84% and 83.6%**
same,% Reduction in kidney tumors (kidney tumor number),[2]; [9],64%
same,% Reduction in kidney tumors (kidney tumor score),[2]; [9],63%*
same,Percent decrease in tumor score per kidney with treatment,[2]; CCI-779 8 mg/kg per day at 6–8 months,39.7%
same,Percent decrease in tumor score per kidney with treatment,"[2]; CCI-779 8 mg/kg per day at 10–12 months, 8 mg/kg/day",64.4%
same,Tumor score per kidney (ave. ± Std. Err.),[2]; at 6–8 months,6.00 ± 1.01
same,Tumor score per kidney (ave. ± Std. Err.),[2]; at 10–12 months,3.54 ± 0.76
C[C@H]1c2cccc(O)c2C(=O)C2=C(O)[C@]3(O)C(=O)C(C(N)=O)=C(O)[C@@H](N(C)C)[C@@H]3[C@@H](O)[C@@H]21 [Doxycycline],Effect on the metabolism of rapamycin (rapamycin levels in combination cohorts),[3],did not significantly affect the metabolism of rapamycin
same,"Efficacy on tumor growth and survival, in words",[1]; atorvastatin 20 mg/kg,not effective as either a single agent or in combination with rapamycin
same,"Day 26, average tumor volume",[1]; [8],1749 ± 352 mm^3
same,Median survival,[1],28 days
CO[C@H]1C[C@@H]2CC[C@@H](C)[C@@](O)(O2)C(=O)C(=O)N2CCCC[C@H]2C(=O)O[C@H]([C@H](C)C[C@@H]2CC[C@@H](O)[C@H](OC)C2)CC(=O)[C@H](C)/C=C(\C)[C@@H](O)[C@@H](OC)C(=O)[C@H](C)C[C@H](C)/C=C/C=C/C=C/1C [Rapamycin],"Score of kidney lesion subtypes (cystic, pre-papillary, papillary, solid)","[4]; 13 months, in words, no statistics",reduced the score of all subtypes of kidney lesions
same,Tumor score per kidney (ave. ± Std. Err.),[4]; analysis at 13 months,0.83 ± .018
same,Tumor score per kidney (ave. ± Std. Err.),"[4]; analysis at 13 months, listed as rapamycin",0.83 ± 0.18
same,Percent decrease in tumor score per kidney with treatment,"[4]; vs untreated, analysis at 13 months, daily treatment 6–7 and 12–13 months, weekly rapamycin 16 mg/kg 7–12 months",94.5%
same,Weight at Necropsy,[5],35.6 ± 0.6 g
same,Weight at Start,[5],36.0 ± 0.6 g
same,Weight gain,[5],-0.4 ± 0.6 g
same,"Weight gain, in words",[5],failed to gain weight
same,Trough levels for standard rapamycin dosing in humans,[6],3 to 20 ng/mL
same,concentration at 24 h,"in vivo; CD-1 nude, tumor",258 ± 91.6 ng/mL
same,concentration at 24 h,"in vivo; nude, whole blood",42.9 ± 24.7 ng/mL
same,"Day 16, average tumor volume",[7]; mean ± standard error,284 ± 52 mm^3
same,"Day 43, average tumor volume",[7]; mean ± standard error,2499 ± 222 mm^3
same,"Day 44, average tumor volume",[7]; mean ± standard error,2607 ± 247 mm^3
same,Median survival,"[7]; time to tumor volume ~3000 mm^3, start at ~150 mm^3",46 days
same,"Day 26, average tumor volume",[1]; [8],544 ± 110 mm^3
same,"Day 42, average tumor volume",[1]; [8],1784 ± 643 mm^3
same,Median survival,[1],41.5 days
CNC(=O)c1cc(Oc2ccc(NC(=O)Nc3ccc(Cl)c(C(F)(F)F)c3)cc2)ccn1 [Sorafenib],Effect on the metabolism of rapamycin (rapamycin levels in combination cohorts),[3],did not significantly affect the metabolism of rapamycin
same,"Day 16, average tumor volume",[7]; mean ± standard error,2209 ± 499 mm^3
same,"Efficacy on tumor growth and survival, in words",[7],not effective
